Results published in patent publication US20200377496A1, “INDOLE AND BENZIMIDAZOLE DERIVATIVES AS DUAL 5-HT2A and 5-HT6 RECEPTOR ANTAGONISTS” (ADAMED PHARMA, S.A., priority 2018, published 2020).

Assays:
[1] = target: human GPCR 5-HT6 (Homo sapiens, UniProt P50406); test: Cellular aequorin-based functional assay, 5-HT6; assay type: cell-based; settings: for 5-HT6 AGO EC50 [nM]: agonist mode, CHO-K1 aequorin cells; for Kb: antagonist mode, reference agonist serotonin 40 nM (EC80), read-out: 5-HT6 ANT Kb
Chain of human GPCR 5-HT6 (P50406 whole entry): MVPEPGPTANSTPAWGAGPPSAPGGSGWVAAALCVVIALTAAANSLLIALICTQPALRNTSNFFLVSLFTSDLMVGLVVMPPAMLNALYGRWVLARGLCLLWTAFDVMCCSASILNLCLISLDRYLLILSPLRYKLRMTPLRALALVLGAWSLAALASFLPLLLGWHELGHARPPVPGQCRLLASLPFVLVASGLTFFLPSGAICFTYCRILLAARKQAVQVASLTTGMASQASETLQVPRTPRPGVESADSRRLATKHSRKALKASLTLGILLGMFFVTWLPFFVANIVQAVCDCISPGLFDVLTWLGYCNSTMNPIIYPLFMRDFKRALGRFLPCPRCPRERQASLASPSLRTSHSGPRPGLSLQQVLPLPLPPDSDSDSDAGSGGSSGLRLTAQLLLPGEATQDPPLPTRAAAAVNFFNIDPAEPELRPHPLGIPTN
Description: Preparation of Solutions of Test and Reference Compounds.
1 mM stock solutions of the tested compounds were prepared in DMSO. Serial dilutions were prepared in 96-well microplate in assay buffers using automated pipetting system epMotion 5070 (Eppendorf). Two independent experiments in duplicates were performed and 6 to 10 concentrations were tested.
5-HT2A and 5-HT6 Functional Activity Assays.
Cellular aequorin-based functional assays were performed with γ-irradiated recombinant CHO-K1 cells expressing mitochondrially-targeted Aequorin, human GPCR (5-HT2A or 5-HT6) and the promiscuous G protein α16 (PerkinElemer). Assays were performed according to the standard protocol provided by the manufacturer. After thawing, cells were transferred to assay buffer (DMEM/HAM's F12 with 0.1% protease-free BSA) and centrifuged. Cell pellet was resuspended in assay buffer and coelenterazine h was added at final concentrations of 5 μM. Cell suspension was incubated at 21° C., protected from light with constant agitation, for 4 hours and then diluted with assay buffer to a concentration of 250,000 cells/ml. After 1 hour incubation 50 yl cell suspension was dispensed using automatic injectors built in radiometric and luminescence plate counter MicroBeta2 LumiJET (PerkinElmer, USA) into white opaque 96-well microplate preloaded with tested compounds. Immediate light emission generated following calcium mobilization was recorded for 30-60 seconds. In antagonist mode, after 15-30 minutes incubation reference agonist was added to the above assay mix and light emission was recorded again. Final concentration of reference agonist was equal EC80: serotonin 40 nM for 5-HT6 receptor and α-methylserotonin 30 nM for 5-HT2A receptor. The assays were performed in the agonist mode (5-HT6 AGO and 5-HT2A AGO) as well as antagonist mode (5-HT6 ANT and 5-HT2A ANT).
IC50 and EC50 were determined by non-linear regression analysis using GraphPad Prism 6.0 software. The log IC50 was used to obtain the Kb by applying the Cheng-Prusoff approximation.

[2] = system: head twitches induced by 5-HT2A/C receptor agonist DOI; test: DOI-induced head twitches in Wistar rats; assay type: in vivo; settings: hydrochloride salt p.o. 180 min before observation; DOI 2.5 mg/kg i.p.; male Wistar rats
Description: Biological Example 3. Effects of Compounds 1 and 17, on Head Twitches Induced by a 5-HT2A/C receptor agonist, 1-(2,5-dimethoxy-4-Iodophenyl)-2-aminopropane hydrochloride (DOI) in Wistar Rats
Drug-naive male Wistar rats (Charles River, Sulzfeld, Germany) were used. Rats were housed four per standard plastic cage and kept in a room with constant environmental conditions (22±1° C., relative humidity 60%, a 12:12 light-dark cycle with lights on at 07:00 a.m.). Animals were supplied by the breeder 2 weeks before the onset of behavioral procedures. During this time, the subjects were weighted and handled several times. The rats were also habituated to p.o. administration of tested compounds in form of hydrochloride salt by gavage dosing of distilled water (1-2 mL). Tap water and standard lab chow (Labofeed H, WPIK, Kcynia, Poland) was available ad libitum.
All tests were carried out in a sound-attenuated experimental room between 10:00 a.m. and 04:00 p.m. DOI-induced head twitches were scored as described by Millan et al. (2000). Rats were injected with DOI (2.5 mg/kg, i.p.) and placed in glass observation cages (25×25×40 cm, W×H×L) with wood chip bedding on the floor. Five minutes later, head twitches were counted for 5 min. (300 s) by a trained observer. […]
Total numbers of head twitches (n/5 min.) were analyzed with the aid of the Kruskal-Wallis analysis of variance (ANOVA). […]

Row | SMILES | 5-HT6 AGO EC50 [nM] [1] | Kb [1] | minimum effective dose (MED), attenuation of DOI-induced head twitches [2]
1 | FC(F)(F)c1nc2c(N3CCNCC3)cccc2n1Cc1ccccc1 [Compound 1, 1-benzyl-4-(piperazin-1-yl)-2-(trifluoromethyl)-1H-benzimidazole] | N.C. | 2.5 nM | 3.0 mg/kg
2 | FC(F)(F)c1cc2c(N3CCNCC3)cccc2n1Cc1ccco1 [Compound 17, 1-(furan-2-ylmethyl)-4-(piperazin-1-yl)-2-(trifluoromethyl)-1H-indole] | N.C. | 0.47 nM | 1.0 mg/kg
